Where two headings read alike, the source gives them in different places.
Assays:
Type in all cases: cell-based
[1] = target: EGFR L858R (Homo sapiens, UniProt P00533, L858R); test: EGFR degradation, Total EGFR (L858R-specific) HTRF, NCI-H3255; set-up: NCI-H3255 (harboring EGFR heterozygous L858R mutation); host or cells: NCI-H3255; details: Table 9A; NCI-H3255 cells, 6 hours, Total EGFR HTRF; read-out: H3255 EGFR DC50
Summary of the method: (§1)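 HTRF read-outs: pY1068 phospho-EGFR for IC50; total EGFR (pan-EGFR in A431, L858R-specific in mutant lines) for DC50. Compounds were titrated 11 points, half-log, from 10 μM in duplicate onto cells in 10% FBS RPMI, incubated 6 h at 37°C.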

[2] = target: T1, EGFR L858R-T790M (Homo sapiens, UniProt P00533, L858R/T790M); test: EGFR degradation, Total EGFR (L858R-specific) HTRF, NCI-H1975; details: NCI-H1975 cells, 6 hours, Total EGFR HTRF, read-out: H1975 EGFR DC50
T1 construct: NCI-H1975 (harboring EGFR heterozygous L858R-T790M mutations); host or cells: NCI-H1975
T1 sequence (P00533 25-1210 T790M/L858R): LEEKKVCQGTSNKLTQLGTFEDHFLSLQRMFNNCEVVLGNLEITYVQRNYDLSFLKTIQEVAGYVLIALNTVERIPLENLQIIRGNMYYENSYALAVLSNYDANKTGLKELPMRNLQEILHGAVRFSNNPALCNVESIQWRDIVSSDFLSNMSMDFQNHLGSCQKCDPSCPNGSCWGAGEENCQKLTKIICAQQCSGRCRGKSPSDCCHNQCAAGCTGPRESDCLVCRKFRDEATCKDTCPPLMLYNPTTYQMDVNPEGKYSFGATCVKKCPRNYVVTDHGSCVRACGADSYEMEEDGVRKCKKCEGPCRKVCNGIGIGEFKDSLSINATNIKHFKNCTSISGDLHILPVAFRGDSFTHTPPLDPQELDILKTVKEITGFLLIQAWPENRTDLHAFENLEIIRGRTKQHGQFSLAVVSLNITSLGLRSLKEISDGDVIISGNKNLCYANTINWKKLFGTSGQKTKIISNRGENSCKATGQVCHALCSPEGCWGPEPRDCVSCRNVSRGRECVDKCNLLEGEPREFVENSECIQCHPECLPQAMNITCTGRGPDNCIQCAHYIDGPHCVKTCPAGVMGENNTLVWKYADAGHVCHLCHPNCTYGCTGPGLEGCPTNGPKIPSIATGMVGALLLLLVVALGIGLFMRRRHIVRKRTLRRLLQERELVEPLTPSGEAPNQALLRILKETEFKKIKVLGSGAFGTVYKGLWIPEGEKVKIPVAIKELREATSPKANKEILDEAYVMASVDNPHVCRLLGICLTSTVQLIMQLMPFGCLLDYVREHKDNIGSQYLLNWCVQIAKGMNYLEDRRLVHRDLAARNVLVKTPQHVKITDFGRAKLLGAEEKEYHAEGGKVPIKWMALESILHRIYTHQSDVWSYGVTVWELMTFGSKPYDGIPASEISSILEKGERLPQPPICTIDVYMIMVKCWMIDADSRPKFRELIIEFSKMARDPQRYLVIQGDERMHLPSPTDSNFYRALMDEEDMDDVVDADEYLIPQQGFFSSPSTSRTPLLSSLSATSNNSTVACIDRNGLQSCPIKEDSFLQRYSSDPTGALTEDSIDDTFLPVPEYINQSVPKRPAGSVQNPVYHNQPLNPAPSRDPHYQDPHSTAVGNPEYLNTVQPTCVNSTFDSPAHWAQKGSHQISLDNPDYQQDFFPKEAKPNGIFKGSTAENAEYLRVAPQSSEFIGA
Summary of the method: as §1

[3] = target: T2, EGFR L858R-T790M-C797S (Homo sapiens, UniProt P00533, C797S/L858R/T790M); test: EGFR degradation, Total EGFR (L858R-specific) HTRF, NCI-H1975+CS; details: 6 hours, Total EGFR HTRF
T2 construct: generated using CRISPR technology to introduce the additional C797S mutation by Horizon Discovery; host or cells: NCI-H1975+CS (CRISPR knock-in of C797S)
T2 sequence (P00533 25-1210 T790M/C797S/L858R): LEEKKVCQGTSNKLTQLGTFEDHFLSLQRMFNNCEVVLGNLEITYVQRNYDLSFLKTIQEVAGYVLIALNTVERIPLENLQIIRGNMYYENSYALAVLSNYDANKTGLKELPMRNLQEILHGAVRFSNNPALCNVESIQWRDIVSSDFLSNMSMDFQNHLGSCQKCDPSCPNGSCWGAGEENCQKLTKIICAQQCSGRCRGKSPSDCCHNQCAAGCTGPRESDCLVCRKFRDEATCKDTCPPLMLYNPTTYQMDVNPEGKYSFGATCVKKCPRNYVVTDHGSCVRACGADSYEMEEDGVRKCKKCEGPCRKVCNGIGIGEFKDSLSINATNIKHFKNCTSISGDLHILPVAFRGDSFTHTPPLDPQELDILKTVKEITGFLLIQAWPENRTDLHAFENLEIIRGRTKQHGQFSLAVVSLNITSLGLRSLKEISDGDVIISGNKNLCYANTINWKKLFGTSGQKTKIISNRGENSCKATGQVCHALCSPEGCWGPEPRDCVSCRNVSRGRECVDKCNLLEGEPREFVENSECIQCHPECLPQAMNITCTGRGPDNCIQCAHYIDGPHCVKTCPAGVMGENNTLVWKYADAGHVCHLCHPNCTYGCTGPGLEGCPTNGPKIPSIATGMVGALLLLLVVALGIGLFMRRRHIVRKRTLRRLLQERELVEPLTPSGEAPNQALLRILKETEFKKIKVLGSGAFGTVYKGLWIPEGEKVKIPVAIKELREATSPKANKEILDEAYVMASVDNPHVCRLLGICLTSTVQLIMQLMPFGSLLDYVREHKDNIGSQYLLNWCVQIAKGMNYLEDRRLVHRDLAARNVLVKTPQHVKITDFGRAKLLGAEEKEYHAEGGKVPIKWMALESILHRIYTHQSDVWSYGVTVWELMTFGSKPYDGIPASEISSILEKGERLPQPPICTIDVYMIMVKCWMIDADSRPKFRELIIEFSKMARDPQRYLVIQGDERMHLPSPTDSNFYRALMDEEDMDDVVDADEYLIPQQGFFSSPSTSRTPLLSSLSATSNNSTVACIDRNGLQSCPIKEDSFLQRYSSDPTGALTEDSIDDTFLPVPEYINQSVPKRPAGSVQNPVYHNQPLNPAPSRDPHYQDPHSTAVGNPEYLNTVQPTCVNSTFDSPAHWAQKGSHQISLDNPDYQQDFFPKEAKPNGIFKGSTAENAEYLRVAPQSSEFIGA
Source text: NCI-H1975 (harboring EGFR heterozygous L858R-T790M mutations) and NCI-H3255 (harboring EGFR heterozygous L858R mutation) were purchased from ATCC and NCI, respectively. NCI-H1975+CS (harboring EGFR heterozygous L858R-T790M-C797S mutations) was generated using CRISPR technology to introduce the additional C797S mutation by Horizon Discovery. A431 (harboring EGFR wildtype) was purchased from ATCC. RPMI 1640 no-phenol red medium and fetal bovine serum (FBS) were purchased from Gibco (Grand Island, NY, USA). Cell culture flasks and 384-well microplates were acquired from VWR (Radnor, PA, USA). Phosphorylated (pY1068) EGFR and Total EGFR (using L858R-specific detection antibody and pan-EGFR antibody for EGFR mutant cell lines and EGFR wild-type cell lines, respectively) HTRF assay kits were purchased from Cisbio (Bedford, MA, USA).
Degradation of EGFR protein containing L858R mutation or wild-type was determined based on quantification of FRET signal using a Total EGFR (L858R-specific or pan-EGFR detecting) HTRF assay kit. Phospho-EGFR (pEGFR) inhibition was determined based on quantification of FRET signal using a pY1068 EGFR HTRF assay kit. In separate assay plates, test compounds were added to the 384-well plate from a top concentration of 10 μM with 11 points, half log titration in duplicates. For each assay, 12.5 uL of cells suspended in assay media (RPMI 1640 no-phenol red medium+10% FBS) at cell densities indicated for each cell line in Table 8 below were dispensed using a multi-channel pipette to 384-well low volume white HTRF microplates containing a duplicate concentration range of test compounds and DMSO controls. The plates were kept at 37° C. with 5% CO2 for 6 hours and then incubated with either phospho EGFR or Total EGFR HTRF detection antibodies according to the cell line and EGFR mutant being assayed. Cells treated in the absence of the test compound were the negative control. Positive control was set by wells containing all reagents but no cells. FRET signal was acquired on EnVision™ Multilabel Reader (PerkinElmer, Santa Clara, CA, USA). Compound concentration that achieves 50% degradation and inhibition was reported as DC50 and IC50, respectively.

[4] = Table 9A, NCI-H1975+CS cells, read-out: H1975+ CS EGFR DC50
[5] = Table 9B, NCI-H1975 C797S clone, read-out: H1975 C797S clone EGFR DC50

Sequence of EGFR L858R (P00533 25-1210 L858R): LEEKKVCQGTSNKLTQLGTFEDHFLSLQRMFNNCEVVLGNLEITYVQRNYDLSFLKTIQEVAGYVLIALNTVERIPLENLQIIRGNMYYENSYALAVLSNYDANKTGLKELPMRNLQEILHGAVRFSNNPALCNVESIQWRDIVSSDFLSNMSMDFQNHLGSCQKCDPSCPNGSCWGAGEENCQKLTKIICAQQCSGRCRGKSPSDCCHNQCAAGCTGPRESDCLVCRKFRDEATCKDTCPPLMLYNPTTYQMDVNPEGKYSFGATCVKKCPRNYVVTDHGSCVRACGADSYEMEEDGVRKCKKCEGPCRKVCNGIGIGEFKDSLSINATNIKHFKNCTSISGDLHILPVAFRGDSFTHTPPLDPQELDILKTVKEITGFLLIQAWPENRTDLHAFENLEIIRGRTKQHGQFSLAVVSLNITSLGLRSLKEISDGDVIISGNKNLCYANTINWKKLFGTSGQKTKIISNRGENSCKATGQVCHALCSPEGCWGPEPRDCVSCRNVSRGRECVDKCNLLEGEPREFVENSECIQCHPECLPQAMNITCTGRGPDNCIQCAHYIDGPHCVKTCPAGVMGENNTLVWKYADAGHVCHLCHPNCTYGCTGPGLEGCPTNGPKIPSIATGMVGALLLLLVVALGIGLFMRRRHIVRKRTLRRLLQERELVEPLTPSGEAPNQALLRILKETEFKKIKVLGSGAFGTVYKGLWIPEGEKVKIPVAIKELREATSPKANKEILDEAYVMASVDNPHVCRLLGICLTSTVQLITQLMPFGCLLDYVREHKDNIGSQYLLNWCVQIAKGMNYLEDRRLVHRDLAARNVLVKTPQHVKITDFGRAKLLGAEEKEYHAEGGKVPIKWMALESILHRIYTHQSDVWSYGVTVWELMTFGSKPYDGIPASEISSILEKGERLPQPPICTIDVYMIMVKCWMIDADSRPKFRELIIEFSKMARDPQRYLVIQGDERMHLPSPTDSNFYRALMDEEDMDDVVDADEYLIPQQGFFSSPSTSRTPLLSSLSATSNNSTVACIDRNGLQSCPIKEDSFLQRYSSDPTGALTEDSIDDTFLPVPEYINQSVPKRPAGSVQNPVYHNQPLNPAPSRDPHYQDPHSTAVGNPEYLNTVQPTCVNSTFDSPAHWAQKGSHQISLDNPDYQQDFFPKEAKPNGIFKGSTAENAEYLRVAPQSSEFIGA

| DC50 [1] | DC50 ([2]; Table 9A) | DC50 [3, 4] | DC50 ([2]; Table 9B) | DC50 [3, 5] | Compound |
| --- | --- | --- | --- | --- | --- |
| < 50 nM | 50 to 150 nM | < 50 nM |  |  | O=C1CCC(Nc2ccc(C3CCN(CC(=O)N4CCN(c5ccc(-c6cc(F)c7c(c6)C(=O)N(C(C(=O)Nc6ccccn6)c6ncn8c6CCC8)C7)cc5)CC4)CC3)cc2)C(=O)N1 (stereo not drawn) [Compound 19, 2-(6,7-dihydro-5H-pyrrolo[1,2-c]imidazol-1-yl)-2-(6-(4-(4-(2-(4-(4-((2,6-dioxopiperidin-3-yl)amino)phenyl)piperidin-1-yl)acetyl)piperazin-1-yl)phenyl)-4-fluoro-1-oxoisoindolin-2-yl)-N-(pyridin-2-yl)acetamide] |
| < 50 nM | 50 to 150 nM | < 50 nM |  |  | O=C1CC[C@H](Nc2ccc(C3CCN(CC(=O)N4CCC(c5ccc(-c6cc(F)c7c(c6)C(=O)N(C(C(=O)Nc6nccs6)c6ncn8c6CCC8)C7)cc5)CC4)CC3)c(F)c2)C(=O)N1 (stereo partly drawn) [Compound 24, 2-(6,7-dihydro-5H-pyrrolo[1,2-c]imidazol-1-yl)-2-(6-(4-(1-(2-(4-(4-(((S)-2,6-dioxopiperidin-3-yl)amino)-2-fluorophenyl)piperidin-1-yl)acetyl)piperidin-4-yl)phenyl)-4-fluoro-1-oxoisoindolin-2-yl)-N-(thiazol-2-yl)acetamide] |
|  |  |  | < 50 nM | < 50 nM | Cn1nc(N2CCC(=O)NC2=O)c2ccc(C3CCN(CC(=O)N4CCC(NC(=O)c5ccc(C#Cc6cc(F)c7c(c6)C(=O)N(C(C(=O)Nc6nccs6)c6ncn8c6CCC8)C7)cn5)CC4)CC3(F)F)cc21 (stereo not drawn) [Compound 88, 5-[2-[2-[1-(6,7-dihydro-5H-pyrrolo[1,2-c]imidazol-1-yl)-2-oxo-2-(thiazol-2-ylamino)ethyl]-7-fluoro-3-oxo-isoindolin-5-yl]ethynyl]-N-[1-[2-[4-[3-(2,4-dioxohexahydropyrimidin-1-yl)-1-methyl-indazol-6-yl]-3,3-difluoro-1-piperidyl]acetyl]-4-piperidyl]pyridine-2-carboxamide] |
|  |  |  | < 50 nM | < 50 nM | Cn1nc(N2CCC(=O)NC2=O)c2ccc(C3CCN(CC(=O)N4CC5(C4)CN(c4ccc(-c6cc(F)c7c(c6)C(=O)N(C(C(=O)Nc6nccs6)c6ncn8c6CCC8)C7)cn4)C5)CC3(F)F)cc21 (stereo not drawn) [Compound 87, 2-(6,7-dihydro-5H-pyrrolo[1,2-c]imidazol-1-yl)-2-(6-(6-(6-(2-(4-(3-(2,4-dioxotetrahydropyrimidin-1(2H)-yl)-1-methyl-1H-indazol-6-yl)-3,3-difluoropiperidin-1-yl)acetyl)-2,6-diazaspiro[3.3]heptan-2-yl)pyridin-3-yl)-4-fluoro-1-oxoisoindolin-2-yl)-N-(thiazol-2-yl)acetamide] |
|  |  |  | < 50 nM | < 50 nM | O=C1CCC(Nc2ccc(N3CCC(O)(CC(=O)N4CCC(NC(=O)c5ccc(C#Cc6cc(F)c7c(c6)C(=O)N(C(C(=O)Nc6nccs6)c6ncn8c6CCC8)C7)cn5)CC4)CC3)c(F)c2)C(=O)N1 (stereo not drawn) [Compound 96, 5-((2-(1-(6,7-dihydro-5H-pyrrolo[1,2-c]imidazol-1-yl)-2-oxo-2-(thiazol-2-ylamino)ethyl)-7-fluoro-3-oxoisoindolin-5-yl)ethynyl)-N-(1-(2-(1-(4-((2,6-dioxopiperidin-3-yl)amino)-2-fluorophenyl)-4-hydroxypiperidin-4-yl)acetyl)piperidin-4-yl)picolinamide] |
|  |  |  | < 50 nM | < 50 nM | O=C1CC[C@H](Nc2ccc(C3CCN(CC(=O)N4CC5(C4)CN(c4ccc(-c6ccc7cn(C(C(=O)Nc8nccs8)c8ncn9c8CCC9)nc7c6F)cn4)C5)CC3)c(F)c2)C(=O)N1 (stereo partly drawn) [Compound 69, 2-(6,7-dihydro-5H-pyrrolo[1,2-c]imidazol-1-yl)-2-[6-[6-[2-[2-[4-[4-[[(3S)-2,6-dioxo-3-piperidyl]amino]-2-fluoro-phenyl]-1-piperidyl]acetyl]-2,6-diazaspiro[3.3]heptan-6-yl]-3-pyridyl]-7-fluoro-indazol-2-yl]-N-thiazol-2-yl-acetamide] |
|  |  |  | < 50 nM | < 50 nM | Cn1nc(N2CCC(=O)NC2=O)c2ccc(C3CCN(CC(=O)N4CC5(C4)CN(c4ccc(-c6cc(F)c7c(c6)C(=O)N(C(C(=O)Nc6nccs6)c6ncn8c6CCC8)C7)cc4)C5)C4(CC4)C3)cc21 (stereo not drawn) [Compound 154, 2-(6,7-dihydro-5H-pyrrolo[1,2-c]imidazol-1-yl)-2-[6-[4-[2-[2-[7-[3-(2,4-dioxohexahydropyrimidin-1-yl)-1-methyl-indazol-6-yl]-4-azaspiro[2.5]octan-4-yl]acetyl]-2,6-diazaspiro[3.3]heptan-6-yl]phenyl]-4-fluoro-1-oxo-isoindolin-2-yl]-N-thiazol-2-yl-acetamide] |
|  |  |  | < 50 nM | 50 to 150 nM | Cn1nc(N2CCC(=O)NC2=O)c2ccc(C3CCN(CC(=O)N4CCCN(c5ccc(-c6cc(F)c7c(c6)C(=O)N(C(C(=O)Nc6nccs6)c6ncn8c6CCC8)C7)cc5)CC4)CC3(F)F)cc21 (stereo not drawn) [Compound 91, 2-(6,7-dihydro-5H-pyrrolo[1,2-c]imidazol-1-yl)-2-(6-(4-(4-(2-(4-(3-(2,4-dioxotetrahydropyrimidin-1(2H)-yl)-1-methyl-1H-indazol-6-yl)-3,3-difluoropiperidin-1-yl)acetyl)-1,4-diazepan-1-yl)phenyl)-4-fluoro-1-oxoisoindolin-2-yl)-N-(thiazol-2-yl)acetamide] |
|  |  |  | < 50 nM | < 50 nM | Cn1nc(N2CCC(=O)NC2=O)c2ccc(N3CCN(CC(=O)N4CCN(c5ccc(-c6cc(F)c7c(c6)C(=O)N(C(C(=O)Nc6nccs6)c6ncn8c6CCC8)C7)cc5)CC4)CC3)cc21 (stereo not drawn) [Compound 92, 2-(6,7-dihydro-5H-pyrrolo[1,2-c]imidazol-1-yl)-2-(6-(4-(4-(2-(4-(3-(2,4-dioxotetrahydropyrimidin-1(2H)-yl)-1-methyl-1H-indazol-6-yl)piperazin-1-yl)acetyl)piperazin-1-yl)phenyl)-4-fluoro-1-oxoisoindolin-2-yl)-N-(thiazol-2-yl)acetamide] |
|  |  |  | < 50 nM | < 50 nM | Cn1nc(N2CCC(=O)NC2=O)c2ccc(C3CCN(CC(=O)N4CC5(C4)CN(c4ccc(-c6ccc7cn(C(C(=O)Nc8nccs8)c8ncn9c8CCC9)nc7c6F)cn4)C5)CC3(F)F)cc21 (stereo not drawn) [Compound 70, 2-(6,7-dihydro-5H-pyrrolo[1,2-c]imidazol-1-yl)-2-[6-[6-[2-[2-[4-[3-(2,4-dioxohexahydropyrimidin-1-yl)-1-methyl-indazol-6-yl]-3,3-difluoro-1-piperidyl]acetyl]-2,6-diazaspiro[3.3]heptan-6-yl]-3-pyridyl]-7-fluoro-indazol-2-yl]-N-thiazol-2-yl-acetamide] |
|  |  |  | < 50 nM | < 50 nM | O=C1CCC(Nc2ccc(N3CCC(O)(CC(=O)N4CC5(C4)CN(c4ccc(-c6cc(F)c7c(c6)C(=O)N(C(C(=O)Nc6ccccn6)c6ncn8c6CCC8)C7)cc4)C5)CC3)c(F)c2)C(=O)N1 (stereo not drawn) [Compound 99, 2-(6,7-dihydro-5H-pyrrolo[1,2-c]imidazol-1-yl)-2-[6-[4-[2-[2-[1-[4-[(2,6-dioxo-3-piperidyl)amino]-2-fluoro-phenyl]-4-hydroxy-4-piperidyl]acetyl]-2,6-diazaspiro[3.3]heptan-6-yl]phenyl]-4-fluoro-1-oxo-isoindolin-2-yl]-N-(2-pyridyl)acetamide] |

Reference: patent US20240158418A1 (C4 Therapeutics, Inc., priority 2021, published 2024)
